{"source": "patent US10465005B2", "about": "“JAML specific binding agents, antibodies, and uses related thereto” (Emory University, priority 2011, dated 2019)", "molecules": {"B1": {"name": "Ad5: recombinant adenoviral fiber knob protein Ad5, reported to bind murine CAR (protein)", "chain": "GAITVGNKNNDKLTLWTTPAPSPNCRLNAEKDAKLTLVLTKCGSQILATVSVLAVKGSLAPISGTVQSAHLIIRFDENGVLLNNSFLDPEYWNFRNGDLTEGTAYTNAVGFMPNLSAYPKSHGKTAKSNIVSQVYLNGDKTKPVTLTITLNGTQETGDTTPSAYSMSFSWDWSGHNYINEIFATSSYTFSYIAQE", "modifications": "left off: small tags and cut ends"}}, "key": {"[1]": {"tested_on": "PMN", "assay": "Surface JAML on PMN after activation (flow cytometry)", "assay_type": "cell-based, human", "settings": "PMA 200 nM, suspension, 15 minutes at 37° c.; FIG. 4A", "protocol": "Freshly isolated PMN, not treated (No Tx), or treated with either fMLF (100 nM) or PMA (200 nM) in suspension for 15 minutes at 37° c. were fixed with 1% paraformaldehyde, stained for JAML (DW100) and CD11b/CD18 (CBRM 1/29) and analyzed for surface expression by flow cytometry.\nSince prior to transepithelial migration PMNs exit the blood vessels, whether JAML expression on PMNs would be preserved during migration across endothelial cells (HDMECs) towards a 10 μM fMLF, as described previously was evaluated. Indeed under similar conditions only a small portion of surface JAML was lost, but most of it was still detectable on PMN surface (FIG. 3B).\nThus whether PMN activation alone is sufficient to induce the loss of surface JAML or whether direct contact with the epithelium is required was examined. To test this, the expression of JAML was analyzed on PMNs that were stimulated in suspension with fMLF (100 μM) and PMA (200 nM). PMNs were allowed to adhere to epithelial cells for 1 hour. The loss of JAML could be correlated to the degree of PMN activation. […] This was again confirmed by immunofluorescence (FIG. 4B). PMN adhesion to epithelium in the absence of proinflamatory stimulus (as measured by flow cytometry, gating on Mac-1 positive PMNs) was also sufficient to induce a partial loss of surface JAML (FIG. 4C), in agreement with the small loss of surface JAML observed after migration through endothelial cells (FIG. 3B). […] Next, the observed loss of JAML during PMN activation may be due to its shedding from PMN surface and thus would be detectable in the supernatant of activated cells. To test this hypothesis, two antibodies, DW100 and DW216 that recognize two different epitopes of JAML were used in a sandwich ELISA assay to capture solubilized molecules in the supernatant of activated PMN."}, "[2]": {"tested_on": "HL-60 and PLB-985 cell lines", "assay": "Surface JAML on HL-60 and PLB-985 after PMA activation", "assay_type": "cell-based, human", "settings": "200 nM PMA, 30 minutes at 37° C.; FIG. 5A", "protocol": "Both HL60 and PLB985 (non-differentiated and differentiated) were washed in Hanks solution with Ca^++ and Mg^++ (H^+) at 30×10^6 cells per condition and resuspended in 350 μl H^+ or H^+ containing 200 nM PMA followed by 30 minutes incubation at 37° C. A cell aliquot was set aside for flow cytometry and cells were stained with monoclonal CBRM1/29 (CD11b/CD18) or DW100 anti JAML followed by Alexa Fluor 488 conjugated goat anti mouse antibody.\nThe findings of JAML shedding were extended to both HL-60 and PLB-985 cell lines. […] Upon activation, human neutrophils release microparticles,called ectosomes, directly from the cell surface and that ectosomes are implicated in the inflammatory response (Eken et al., 2008, J. Immunol. 180, 817-824). To test whether JAML molecules were released in microparticles, supernatants from activated cells were subjected to ultracentrifuge (100,000×g). […] Thus, JAML is indeed shed into the medium upon PMN activation as a soluble molecule."}, "[3]": {"tested_on": "monocytes", "assay": "Surface JAML on monocytes after PMA activation", "assay_type": "cell-based, human", "settings": "15 minutes at 37° C., FIG. 11", "protocol": "Monocytes were isolated and purified from whole blood of healthy human donors, incubated on ice with either IgG control (solid histograms) or purified anti-JAML antibodies (5 μg/ml), followed by Alexa Fluor 488 conjugated goat anti mouse antibody before (NoTx) and after PMA activation (PMA, 15 minutes at 37° C.). JAML surface expression was analyzed by flow cytometry.\nFollowing the observation of a complete loss of JAML on PMNs that underwent TEM and with the use of JAML specific mAbs, it was determined that the loss of JAML was induced by PMN activation and that it correlated to the degree of activation and the strength of the given stimulus. […] JAML shedding is not restricted to PMNs alone. JAML is also expressed on blood monocytes. […] As monocytes trail the PMNs infiltrating mucosal surfaces, in addition to PMNs they would also be a source for soluble JAML, further enhancing its effects on epithelial function. […] The shedding of JAML is believed to be due to a zinc-dependent metalloprotease that is inhibited by phenanthroline, a zinc chelator molecule and TAPI-2, a hydroxymate acid-base derivative which inhibits zinc-dependent metalloprotease activities by binding specifically to the catalytic site of the enzyme."}, "[4]": {"tested_on": "JAML shedding from PLB985", "assay": "JAML shedding with protease inhibitors, PLB985", "assay_type": "cell-based, human", "settings": "Phenanthroline; TAPI-2 1 μM", "protocol": "FIG. 5C. Inhibition of JAML shedding on the cell surface of PLB985 was confirmed by FACS analysis of cells stained with DW216. In the presence of inhibitors, activated cells maintained the same level of surface expression as the non-activated cells.\nTo explore the mechanisms for release of JAML from the surface of differentiated HL60 and PLB-985 cells during activation with PMA, PMA was added to cells in the presence or absence of a variety of protease inhibitors. The protease inhibitor cocktail from Sigma that targets serine proteases was used as well as cysteine proteases and several independent inhibitors. […] (Le Gall et al., 2003, JBC 278 No46 45255-45268).\nCells suspensions of adherent cells were prepared by trypsinization with Trypsin-EDTA (Sigma). After washing, cells were resuspended in FACS buffer (2% FBS in PBS+0.1% Na Azide). Approximately, 3-5×10^5 cells were incubated with 5-10 μg/ml of primary antibody for 1 hr at 4° C. followed by 3 washes in FACS buffer and incubation with 1 μg/ml secondary antibody conjugated with Alexa-488. After final washes, cells were analyzed using FACS Calibur. […] All samples were stained for JAML (DW100 mAb) and CD11b/CD18 (CBRM 1/29), and only CD11b/CD18 positive cells (PMNs) were analyzed for JAML expression."}, "[5]": {"tested_on": "JAML release from CHO-JAML-His transfectants", "assay": "JAML release with protease inhibitors, CHO-JAML-His transfectants", "assay_type": "cell-based"}, "[6]": {"molecular_target": "T1, epithelial CAR (Mus musculus, UniProt P97792)", "T1 construct": "from tissue; host or cells: mouse colonic mucosa", "T1 sequence (P97792 20-365)": "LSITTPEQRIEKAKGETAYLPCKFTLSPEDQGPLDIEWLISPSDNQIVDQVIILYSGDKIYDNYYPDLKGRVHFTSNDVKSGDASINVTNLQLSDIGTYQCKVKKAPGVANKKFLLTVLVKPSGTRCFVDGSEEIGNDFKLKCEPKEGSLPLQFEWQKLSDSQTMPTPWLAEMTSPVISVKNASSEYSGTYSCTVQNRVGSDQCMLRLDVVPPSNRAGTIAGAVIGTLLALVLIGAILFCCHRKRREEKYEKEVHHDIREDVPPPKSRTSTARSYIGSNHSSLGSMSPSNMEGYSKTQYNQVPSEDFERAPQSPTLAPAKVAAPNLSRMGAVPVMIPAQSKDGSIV", "assay": "Immunofluorescence of wounded mouse colonic tissue", "assay_type": "in vivo", "settings": "I.P. administered his-tagged protein; 1 day after wounding; FIG. 13E"}, "[7]": {"molecular_target": "T2, murine CAR (Mus musculus, UniProt P97792)", "T2 sequence (P97792 20-365)": "T1 sequence (P97792 20-365)", "settings": "cited from earlier work"}, "[8]": {"molecular_target": "T3, CAR (Mus musculus, UniProt P97792)", "T3 construct": "from tissue; host or cells: mouse colonic mucosa", "T3 sequence (P97792 20-365)": "T1 sequence (P97792 20-365)", "assay": "Colonic mucosal wound healing in vivo", "settings": "mice; I.P. twice a day 10 μg in 200 μl PBS; endoscopic imaging; FIG. 13B", "protocol": "(§1) To examine this in-vivo, the effect of inhibition of CAR function was analyzed on mucosal wound recovery. […] See Witherden et al., Science, 2010, 329(5996): 1205-1210. Whether administration of recombinant Ad5 inhibits colonic wound healing was examined in mice in a fashion analogous to the endogenous CAR ligand, JAML. Colonic mucosal wounds were generated using a mouse colonoscope, and wound recovery was examined 2 and 4 days post wounding by endoscopic imaging in the presence of Ad5, Ad11 (administered I.P, twice a day 10 μg in 200 μl PBS) or PBS alone.\nas §1, with “function” for “function was analyzed”, “recovery was analyzed.” for “recovery.”, “colonoscope (FIG. 13, Panel A),” for “colonoscope,”, “alone. […] The delayed wound closure was also evident from histological analysis (representative images, FIG. 13, Panel C) and whole mount preparation (representative images, FIG. 13, Panel D).” for “alone.”"}}, "data": [{"molecule": "CCCCCCCCCCCCCC(=O)O[C@@H]1[C@@H](C)[C@@]2(O)[C@@H](C=C(CO)C[C@]3(O)C(=O)C(C)=C[C@@H]23)[C@@H]2C(C)(C)[C@]12OC(C)=O", "note": "[PMA, Phorbol Myristate Acetate]", "values": [{"measurement": "surface JAML on PMN after PMA", "setting": "[1]", "value": "complete loss of surface JAML from PMNs"}, {"measurement": "surface JAML on HL-60 and PLB-985 after PMA", "setting": "[2]", "value": "complete loss of surface JAML"}, {"measurement": "JAML expression on monocytes after PMA", "setting": "[3]", "value": "lost upon activation with PMA"}]}, {"molecule": "CC(C)C[C@H](CC(=O)NO)C(=O)N[C@H](C(=O)N[C@@H](C)C(=O)NCCN)C(C)(C)C", "note": "[TAPI-2]", "values": [{"measurement": "inhibition of PMA-induced JAML shedding, PLB985", "setting": "[4]", "value": "inhibition of shedding"}, {"measurement": "inhibition of PMA-induced JAML release, CHO-JAML-His transfectants", "setting": "[5]", "value": "strongly inhibited JAML release due to PMA activation"}]}, {"molecule": "B1", "values": [{"measurement": "colocalization with epithelial CAR at wounded areas", "setting": "[6]", "value": "colocalizes with epithelial CAR at wounded areas"}, {"measurement": "binding to murine CAR and competition with JAML binding (Witherden et al. 2010)", "setting": "[7]", "value": "has been reported to bind murine CAR and compete with JAML binding"}, {"measurement": "mucosal wound healing 4 days after wounding", "setting": "[8]", "value": "~20", "unit": "%"}]}]}
